Tests used:
[1] = target: T1, recombinant, membrane-bound mPGES-1 (Homo sapiens, UniProt O14684); assay: Thiobarbituric acid assay (TBA-MDA assay), inhibition of mPGES-1; format: biochemical; details: remaining PGH2 measured at 535 nm
T1 sequence (O14684 1-152): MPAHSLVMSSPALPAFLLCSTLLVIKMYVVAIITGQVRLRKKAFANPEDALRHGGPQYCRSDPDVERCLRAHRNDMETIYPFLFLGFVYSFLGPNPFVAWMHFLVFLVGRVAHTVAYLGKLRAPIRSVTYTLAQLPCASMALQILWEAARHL
From the text: Malondialdehyde is a product of lipid peroxidation and reacts with thiobarbituric acid forming a red product that absorbs at 535 nm (W. G. Niehaus, Jr and B. Samuelsson, Eur. J. Biochem 6, 126 (1968). The extinction coefficient of the TBA-MDA conjugate is 1.56×10^5 M^−1 cm^−1 (E. D. Wills. Biochem. J. 113, 315 (1969).
The method used for detection of inhibition of mPGES-1 is based on the detection of the amount of remaining PGH2. This method was described more than 20 years ago by Basevich et al (Bioorg. Khim. 1983, 9(5), 658-665.
The assay used was a modified variant and used citric acid instead of the TCA-TBA-HCl reagent described in the original assay. In this assay recombinant, membrane-bound mPGES-1 was incubated with PGH2. The reaction was stopped by adding citric acid with a final pH of 3 and a large excess of FeCl2 (20 mM) to convert any remaining PGH2 into MDA and […]. TBA reagent was finally added (0.67%) and the samples were heated at 80° C. for 30 min. The absorbance of the conjugate was measured at 535 nm.
The product of mPGES-1 (PGE2) was not measured directly in this assay, but rather the remaining substrate (PGH2) indirectly by adding FeCl2 that converts PGH2 into […] and 12-HHT. As a positive control a known mPGES-1 inhibitor, MK-886, was used and the new inhibitors were compared with the inhibition of MK-886 (% of MK-886 inhibition).

[2] = test system: A549 lung carcinoma cells; assay: A549 assay, PGE2 content in supernatant by EIA; format: cell-based; details: Homo sapiens, A549; TNFalfa and IL-1beta induced 16 h; 30 min compound, then 10 μM arachidonic acid 30 min
Experimental: A549 lung carcinoma cells, seeded at a density of 10,000 cells/well, were grown in 96 well tissue culture plates. TNFalfa (5 ng/ml) and […] (5 ng/ml) were added and the cells were incubated for 16 hours. Cells were washed in PBS and test compounds at the appropriate concentration in HBSS/0.1% BSA were added. After 30 minutes incubation with test compounds, 10 μM arachidonic acid was added and cells were further incubated for 30 minutes. Supernatant was collected and analyzed for PGE2 content by EIA according to manufacturer's instructions.

- IC50 [1]: 200 nM
- EC50 [2]: 1230 nM
Structure (SMILES): C[C@H](NC(=O)c1cccc(NC(=O)c2ccccc2I)c1)c1cccc2ccccc12 [Compound 79, 2-Iodo-N-[3-((S)-1-naphthalen-1-yl-ethylcarbamoyl)-phenyl]-benzamide]

Source: patent publication US20100324086A1, “COMPOUNDS AND METHODS” (Novasaid AB, priority 2008, published 2010)
